In PMC4710668, “Bioactivation of food genotoxicants 5-hydroxymethylfurfural and furfuryl alcohol by sulfotransferases from human, mouse and rat: a comparative study” (Archives of Toxicology, 2014):

Key:
Assay in all cases: HMF sulfoconjugation assay
Format in all cases: biochemical
[1] = target: T1, mSult1a1 (Mus musculus, UniProt P52840)
T1 construct: made in house; host or cells: Salmonella typhimurium TA1538 (cytosolic fraction, enzyme not purified)
Method: (§1) Cytosolic fractions containing individual SULT forms were prepared from transgenic S. typhimurium TA1538. Table S1 in the Supplementary Material provides a summary of the thirty SULTs used in the current study together with references describing the cloning of the respective S. typhimurium TA1538 strains. The expressed SULT forms are denoted with the prefixes h, m and r for human, mouse and rat enzymes, respectively. Bacteria were grown in Luria Broth medium containing ampicillin (100 µg/ml) by stirring for 8 h at 200 revolutions/min at 37 °C. The bacterial suspensions were centrifuged at 5,000 g for 10 min. The sediments were washed twice with 25 ml of 10 mM potassium phosphate buffer (pH 7.4)/50 mM potassium chloride (KCP buffer) and centrifuged again. The pellets were taken up in 800 µl KCP buffer and sonicated thrice for 15 s with 30 s pauses in between. The soluble fraction was attained by centrifuging for 1 h at 100,000 g. The supernatants (in the following termed cytosolic preparations) were frozen at −80 °C. The protein concentrations were determined according to a bicinchoninic acid (BCA) assay protocol. The SULT concentrations in the cytosolic preparations were estimated after electrophoretic separation and immunodetection using inclusion bodies of different SULT forms as standards (Teubner et al. [2007]). The preparation of SULT inclusion bodies and the immunodetection of SULTs is described in the Supplementary Material, which also contains a representative immunoblot of different amounts of rSult1a1standard and a cytosolic preparation of S. typhimurium expressing rSult1a1 (Fig. S1).
(§2) The reactions were conducted in mixtures of 100 µl containing 25–200 µg protein, 50 mM potassium phosphate buffer (pH 7.4), 5 mM MgCl2, 50 µM PAPS and different concentrations of HMF at 37 °C. Preliminary experiments ensured that measurements were recorded under ‘linear’ conditions, i.e., doubling of protein concentration or incubation time was doubling the amount of sulfate ester formed. The reactions were stopped after 30 min by adding 300 µl ice-cold 2-propanol, mixed and centrifuged at 15,000 g for 10 min.
(§3) SMF concentrations of the clear supernatants were analyzed by UPLC-MS/MS. The protocol was adapted from the quantification of SMF in plasma samples of HMF-treated mice (Monien et al. [2009]). In short, the supernatants were analyzed using a UPLC system (Waters) connected to a Quattro Premier XE tandem quadrupole mass spectrometer (Waters) using the negative electrospray ionization mode. Samples of 4 µl were injected into a HSS T3 column (1.8 µm, 2.1 × 100 mm; Waters) and eluted with an isocratic flow of 0.35 ml/min 10 mM ammonium acetate/methanol (95:5). The fragmentation reactions of SMF yielding two principal ions, the sulfate ion radical (m/z = 204.9 → 96.0) and the protonated sulfonate ion (m/z = 204.9 → 81.0) were monitored. The tune parameters were as follows: temperature of the electrospray source 120 °C; desolvation temperature 475 °C; desolvation gas nitrogen (800 l/h); cone gas nitrogen (100 l/h); collision gas argon (indicated cell pressure ~5 × 10^−3 mbar). For the fragmentation of SMF, collision energies were 20 and 23 eV for the transitions m/z = 204.9 → 81.0 and m/z = 204.9 → 96.0, respectively. The dwell time was set to 100 ms, and capillary voltage was set to 0.35 kV. The cone and RF1 lens voltages were 32 and 0.2 V, respectively. SMF was quantified using an external calibration line that was linear in the concentration range of 1.0 nM (4 fmol/injection) to 2,500 (10 pmol/injection) SMF (r ^2 ≥ 0.99). Data acquisition and handling were performed with MassLynx 4.1 software (Waters). The limit of detection (LOD) for this technique of 2.5 nM SMF has been reported (Monien et al. [2009]). In the current study, this corresponds to 10 fmol SMF per injection or a reaction rate of 0.5 pmol SMF/mg/min.

[2] = target: T2, hSULT2B1a (Homo sapiens, UniProt O00204)
T2 construct: made in house; host or cells: Salmonella typhimurium TA1538 (cytosolic fraction, not purified)
T2 sequence (O00204 1-350 isoform O00204-2): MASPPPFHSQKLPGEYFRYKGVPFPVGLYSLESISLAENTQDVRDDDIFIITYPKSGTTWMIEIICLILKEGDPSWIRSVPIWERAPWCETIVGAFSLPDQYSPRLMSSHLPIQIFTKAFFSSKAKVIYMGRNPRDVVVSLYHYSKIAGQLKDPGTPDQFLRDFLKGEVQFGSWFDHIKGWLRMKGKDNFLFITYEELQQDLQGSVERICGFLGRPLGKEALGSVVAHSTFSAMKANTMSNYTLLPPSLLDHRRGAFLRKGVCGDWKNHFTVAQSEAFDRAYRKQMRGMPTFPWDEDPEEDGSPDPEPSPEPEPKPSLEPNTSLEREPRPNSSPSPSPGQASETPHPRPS
Method: as §1, §2, §3

[3] = target: T3, hSULT4A1 (Homo sapiens, UniProt Q9BR01)
T3 construct: made in house; host or cells: Salmonella typhimurium TA1538 (cytosolic fraction, not purified)
T3 sequence (Q9BR01 1-284): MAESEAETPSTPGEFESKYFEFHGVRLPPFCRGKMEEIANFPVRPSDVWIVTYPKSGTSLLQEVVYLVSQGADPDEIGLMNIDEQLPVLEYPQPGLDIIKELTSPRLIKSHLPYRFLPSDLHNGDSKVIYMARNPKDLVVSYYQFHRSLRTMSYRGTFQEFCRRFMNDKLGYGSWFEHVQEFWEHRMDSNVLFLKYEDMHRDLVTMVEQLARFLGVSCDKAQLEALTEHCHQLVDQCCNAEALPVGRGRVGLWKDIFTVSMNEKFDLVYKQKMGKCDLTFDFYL
Method: as §1, §2, §3

[4] = target: T4, rSult2b1 (Rattus norvegicus, UniProt Q29YR5)
T4 construct: made in house; host or cells: Salmonella typhimurium TA1538 (cytosolic fraction, enzyme not purified)
T4 sequence (Q29YR5 1-340): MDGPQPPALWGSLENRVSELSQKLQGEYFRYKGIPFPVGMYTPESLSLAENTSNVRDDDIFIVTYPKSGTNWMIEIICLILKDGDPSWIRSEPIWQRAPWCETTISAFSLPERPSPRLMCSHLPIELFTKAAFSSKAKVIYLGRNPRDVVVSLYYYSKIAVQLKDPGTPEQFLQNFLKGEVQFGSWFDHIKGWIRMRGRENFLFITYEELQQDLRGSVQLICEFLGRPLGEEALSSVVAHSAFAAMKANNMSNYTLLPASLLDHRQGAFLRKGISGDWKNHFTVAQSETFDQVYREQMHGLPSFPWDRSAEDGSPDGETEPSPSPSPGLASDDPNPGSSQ
Method: as §1, §2, §3

T1 sequence (P52840 whole entry): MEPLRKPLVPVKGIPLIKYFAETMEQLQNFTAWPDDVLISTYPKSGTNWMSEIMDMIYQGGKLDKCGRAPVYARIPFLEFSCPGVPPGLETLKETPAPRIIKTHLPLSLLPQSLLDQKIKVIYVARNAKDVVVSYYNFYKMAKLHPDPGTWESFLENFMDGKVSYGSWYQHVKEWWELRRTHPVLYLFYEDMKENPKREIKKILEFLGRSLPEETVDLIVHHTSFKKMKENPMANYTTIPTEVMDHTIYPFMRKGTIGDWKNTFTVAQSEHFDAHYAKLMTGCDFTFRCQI

`O=Cc1ccc(CO)o1` [HMF, 5-Hydroxymethylfurfural] was tested, and the Rate of sulfoconjugation ([1]; 0.1 mM HMF) was 76.6 ± 14.4 pmol/mg/min, the Rate of sulfoconjugation ([1]; 1 mM HMF) was 722 ± 93 pmol/mg/min and the Rate of sulfoconjugation ([1]; 10 mM HMF) was 2,010 ± 210 pmol/mg/min. The Rate of sulfoconjugation ([1]; 100 mM HMF) was 1,970 ± 70 pmol/mg/min, the “K M” value ([1]; HMF sulfoconjugation, Michaelis-Menten fit) was 2000 ± 300 µM and the Rate of sulfoconjugation ([2]; 0.1 mM HMF) was <0.5 pmol/mg/min. For the same compound, the Rate of sulfoconjugation ([2]; 1 mM HMF) was <0.5 pmol/mg/min, the Rate of sulfoconjugation ([2]; 10 mM HMF) was <0.5 pmol/mg/min and the Rate of sulfoconjugation ([2]; 100 mM HMF) was <0.5 pmol/mg/min. For the same compound, the Rate of sulfoconjugation ([3]; 0.1 mM HMF) was <0.5 pmol/mg/min, the Rate of sulfoconjugation ([3]; 1 mM HMF) was <0.5 pmol/mg/min and the Rate of sulfoconjugation ([3]; 10 mM HMF) was <0.5 pmol/mg/min. For the same compound, the Rate of sulfoconjugation ([3]; 100 mM HMF) was <0.5 pmol/mg/min, the Rate of sulfoconjugation ([4]; 0.1 mM HMF) was <0.5 pmol/mg/min and the Rate of sulfoconjugation ([4]; 1 mM HMF) was <0.5 pmol/mg/min. For the same compound, the Rate of sulfoconjugation ([4]; 10 mM HMF) was <0.5 pmol/mg/min and the Rate of sulfoconjugation ([4]; 100 mM HMF) was <0.5 pmol/mg/min.
